The source of these data is patent publication US10993433B2, “Method of producing in vitro testicular constructs and uses thereof” (Wake Forest University Health Sciences, priority 2015, dated 2021).

For orientation: IC50 means the concentration that gives 50% inhibition.

Structures are written as SMILES. Where two headings read alike, the source gives them in different places.

For assay [1], the system named is 2D cultured cells (SSC, Sertoli, Leydig at the same cell ratios and density of 3D organoids). Nature of the assay: Drug toxicity test, CellTiter-Glo ATP viability, 2D cultured testicular cells. The format is cell-based, human. Conditions: 2D culture, 48 hours exposure, ATP content (CellTiter-Glo). On the procedure: (§1) For toxicity testing, cisplatin and etoposide were purchased from Santa Cruz Biotechnology (Dallas, Tex.) and stock solutions of 5 mM and 25 mM were made in 0.9% NaCl and DMSO, respectively. Doxorubicin was purchased from Sigma-Aldrich, (St. Louis, Mo.) and a stock solution was produced in diH2O at a concentration of 10 mM. Busulfan (24 mM) was purchased from Otsuka Pharmaceutical (Tokyo, Japan) and was diluted into medium immediately prior to use. The undifferentiated (just after formation, 2 days in culture) and differentiated (23 days in culture) organoids, as well as 2D cultured cells (at the same cell ratios and density of 3D organoids), were treated for 48 hours in 6 different concentrations of each drug (0.01, 0.1, 1, 10, 100 and 1000 μM) in vitro. After 48 hours, CellTiter-Glo® Luminescent Cell Viability assays were performed (Promega) on all conditions. Briefly, culture plates were removed from the incubator and equilibrated to room temperature for 30 minutes. To each well of the 96-well culture plate, 100 μl of CellTiter-Glo® reagent was added at a 1:1 ratio and plates were moved to an orbital shaker for 5 minutes to induce cell lysis. Plates were incubated at room temperature for 10 minutes to stabilize luminescent signal and read on a Veritas™ luminometer. Integration times of 1 second were used for all samples. All conditions were performed in triplicate and medium only control wells were read and subsequently used for background subtraction. IC50 values were determined using GraphPad Prism® 6 calculated via 4-parameter fit with a 95% confidence interval. All experimental conditions were repeated at least three times.
(§2) The use of human testicular organoids as a novel screening tool for reproductive toxicity was assess by exposing 3D organoids to four clinically relevant antimitotic chemotherapeutic drugs: busulfan, cisplatin, doxorubicin, and etoposide. To obtain IC50 values, undifferentiated (2 days in culture) and differentiated (23 days in culture) organoids were exposed to increasing concentrations of drugs for 48 hours. H&E staining as well as Live/Dead viability assays were performed on organoids following drug treatment (FIG. 7A and Figure B, respectively). Drug-treated organoids were harvested and further evaluated for toxicity by measuring ATP production (CellTiter-Glo®; Promega, Madison, Wis.). Resulting viability was then used to establish IC50 values for organoid cultures (FIG. 7C).

Assay [2] relates to 3D human testicular organoids. Nature of the assay: Drug toxicity test, CellTiter-Glo ATP viability, 3D testicular organoids. The format is cell-based. Conditions: 48 hours exposure, ATP content. As for the experimental part:
Isolated human SSC, immortalized Sertoli cells, and immortalized Leydig cells at passage 5-6 were propagated in normal 6-well tissue culture plates to 80-90% confluency and passaged using trypsin EDTA (0.25%). Counted cells were pelleted and resuspended in a testicular organoid formation medium composed of normal StemPro®-34 (Invitrogen) SSC proliferation medium supplemented with 30% FBS, 1 μg/mL solubilized human testis extracellular matrix extract and 50 μg/mL Gentamycin. All three cell suspensions were combined together at a ratio of 8:1:1 and seeded into Perfecta3D® 96-well hanging drop plates (3D Biomatrix, Ann Arbor, Mich.) or GravityPLUS™ 96-well hanging drop plates (InSphero, Schlieren, Switzerland) at a density of 10,000 cells/40 μl drop volume. Following 48-72 hours of hanging drop culture, all testicular cell subtypes had amalgamated into compact organoids and were transferred into 96-well format Corning® Costar® Ultra-low Attachment Multiwell U-bottom plates for long term culture (Sigma-Aldrich, St. Louis, Mo.). For long-term study, all testicular organoids were cultured inn normal StemPro®-34 SSC proliferation medium without human leukemia inhibitory factor (LIF) and supplemented with 1 μg/mL solubilized human testis extracellular matrix extract, 2 μM retinoic acid (Sigma-Aldrich), 2.5×10^−5 IU follicle-stimulating hormone (Sigma-Aldrich), 100 ng/mL recombinant human stem cell factor (SCF; PeproTech, Rocky Hill, N.J.), and 50 μg/mL Gentamycin. Culture medium was refreshed every 4 days. All testicular organoids were cultured at 34° C. and 5% CO2.
as §1
as §2, with “Resulting viability was then used to establish IC50 values for organoid cultures (FIG. 7C).” left out

[3] abbreviates: Homo sapiens, differentiated organoids (23 days in culture), read-out: 3D IC50 Differentiated Organoids.
The mark [4] stands for this setting: Homo sapiens, undifferentiated organoids (2 days in culture), read-out: 3D IC50 Undifferentiated Organoids.

Take `CS(=O)(=O)OCCCCOS(C)(=O)=O` [Busulfan]: the IC50 stood at 328 µM in assay [1] (Homo sapiens, Leydig); 906 µM in assay [2] (setting [3]); 830 µM in assay [2] (setting [4]).

In the case of `N.N.[Cl][Pt][Cl]` [Cisplatin], the IC50 in assay [1] is 23.8 µM; in assay [2] (differentiated organoids (23 days in culture), read-out: 3D IC50 Differentiated Organoids), 158 µM; in assay [2] (undifferentiated organoids (2 days in culture), read-out: 3D IC50 Undifferentiated Organoids) it was 38.4 µM.

Regarding `COc1cccc2c1C(=O)c1c(O)c3c(c(O)c1C2=O)C[C@@](O)(C(=O)CO)C[C@@H]3O[C@H]1C[C@H](N)[C@H](O)[C@H](C)O1` [Doxorubicin], the IC50 was determined as 0.19 µM in assay [1] (Homo sapiens, Leydig); 2.76 µM in assay [2] (setting [3]); 1.33 µM in assay [2] (setting [4]).

`COc1cc([C@@H]2c3cc4c(cc3[C@@H](O[C@@H]3O[C@@H]5CO[C@@H](C)O[C@H]5[C@H](O)[C@H]3O)[C@H]3COC(=O)[C@H]23)OCO4)cc(OC)c1O` [Etoposide]: the half-inhibitory concentration (IC50) in assay [1] (Homo sapiens, Leydig) stood at 43.5 µM; in assay [2] (setting [3]), 839 µM; in assay [2] (setting [4]), 449 µM.
